We go through 3 compounds from patent publication US12227501B2, “3-amino-2-[2-(acylamino)pyridin-4-yl]-1,5,6,7-tetrahydro-4h-pyrrolo[3,2-c]pyridin-4-one as CSNK1 inhibitors” (Bayer Aktiengesellschaft, priority 2019, dated 2025).

Format in all cases: biochemical
Experiment [1] concerns the target T1, human CSNK1A1 (Homo sapiens (Human), UniProt P48729). Nature of the experiment: CSNK1A1 High ATP Assay (ADP-Glo, 1 mM ATP). To be noted: read-out: CSNK1A1 high ATP assay IC50 [mol/l] (median). The method, boiled down: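 Kinase activity taken as ADP generated, quantified by ADP-Glo luminescence after 1 h ATP depletion and 1 h detection at 22 °C. Enzyme is GST–full-length human CSNK1A1 (insect cell-expressed), pre-bound to compound for 15 min, with phosphopeptide substrate and 1 mM ATP.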
For orientation: ADP-Glo turns the ADP formed in a reaction into a luminescent signal.

In experiment [2] the target is human CSNK1D (Homo sapiens (Human), UniProt P48730). Nature of the experiment: CSNK1D Assay (ADP-Glo, 1 μM ATP). The following applies: read-out: CSNK1D IC50 [mol/l] (median). The method, boiled down: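 Activity is read as ADP produced, by ADP-Glo luminescence after 1 h steps at 22 °C. The reaction uses 1 μM ATP, a biotinylated peptide and insect-cell-expressed GST–CSNK1D (about 0.5 ng/μL) in pH 7.5 HEPES buffer, with 15 min compound–enzyme preincubation.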
Chain of human CSNK1D (P48730 whole entry): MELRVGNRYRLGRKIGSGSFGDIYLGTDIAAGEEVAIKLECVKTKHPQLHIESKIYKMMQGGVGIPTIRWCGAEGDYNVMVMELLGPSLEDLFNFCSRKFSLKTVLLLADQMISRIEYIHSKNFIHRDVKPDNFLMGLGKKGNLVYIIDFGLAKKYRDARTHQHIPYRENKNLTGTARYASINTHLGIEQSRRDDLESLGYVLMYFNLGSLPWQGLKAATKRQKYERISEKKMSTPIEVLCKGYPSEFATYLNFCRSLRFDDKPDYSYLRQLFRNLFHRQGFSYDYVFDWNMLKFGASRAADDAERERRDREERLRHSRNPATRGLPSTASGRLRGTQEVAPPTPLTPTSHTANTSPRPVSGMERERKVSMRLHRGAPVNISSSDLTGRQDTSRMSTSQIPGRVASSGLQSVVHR

For experiment [3], the target named is wild-type Epidermal Growth Factor Receptor (EGFR) (Homo sapiens (Human), UniProt P00533). In words: WT-EGFR Kinase Assay (TR-FRET, 2 mM ATP). To be noted: read-out: EGFR Wildtyp- 2 mM ATP IC50 [mol/l] (median). On the technique in general: In TR-FRET formats the signal depends on donor and acceptor labels being close together.
Chain of wild-type Epidermal Growth Factor Receptor (EGFR) (P00533 669-1210): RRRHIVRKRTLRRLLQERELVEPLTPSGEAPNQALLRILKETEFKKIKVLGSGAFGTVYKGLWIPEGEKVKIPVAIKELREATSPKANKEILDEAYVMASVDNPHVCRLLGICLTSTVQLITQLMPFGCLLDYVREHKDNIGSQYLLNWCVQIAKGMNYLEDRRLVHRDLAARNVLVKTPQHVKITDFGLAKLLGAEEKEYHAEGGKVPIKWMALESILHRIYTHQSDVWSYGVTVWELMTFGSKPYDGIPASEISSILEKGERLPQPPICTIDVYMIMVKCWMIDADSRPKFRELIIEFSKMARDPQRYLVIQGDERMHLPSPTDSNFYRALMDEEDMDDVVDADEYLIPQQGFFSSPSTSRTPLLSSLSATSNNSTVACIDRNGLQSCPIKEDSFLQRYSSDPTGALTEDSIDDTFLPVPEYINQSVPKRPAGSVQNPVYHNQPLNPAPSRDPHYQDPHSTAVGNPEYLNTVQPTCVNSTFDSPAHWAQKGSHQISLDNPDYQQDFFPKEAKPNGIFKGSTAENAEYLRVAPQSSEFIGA
For experiment [4], the target named is T1, human CSNK1A1. In words: CSNK1A1 Assay 1 (ADP-Glo, 1 μM ATP). The following applies: substrate Btn-Ahx-SGSEGDSESGEEEG, read-out: CSNK1A1 Assay 1 IC50 [mol/l] (median). As to the method: CSNK1A1-inhibitory activity of compounds of the present invention in presence of 1 μM adenosine-tri-phosphate (ATP) was quantified employing the CSNK1A1 assay as described in the following paragraphs. In essence, the enzyme activity is measured by quantification of the adenosine-di-phosphate (ADP), which is generated as a co-product of the enzyme reaction, via the “ADP-Glo™ Kinase Assay” kit from the company Promega. This detection system works as follows: In a first step the ATP not consumed in the kinase reaction is quantitatively converted to cAMP employing an adenylate cyclase (“ADP-Glo-reagent”), then the adenylate cyclase is stopped and the ADP generated in the kinase reaction converted to ATP which generates in a luciferase-based reaction a glow-luminescence signal (“Kinase Detection Reagent”). Recombinant fusion protein of N-terminal Glutathion-S-Transferase (GST) and full-length human CSNK1A1, expressed by baculovirus infected insect cells and purified via Glutathion affinity chromatography, was purchased from Life Technologies (product no. PV4174) and used as enzyme. As substrate for the kinase reaction the biotinylated peptide Btn-Ahx-[…] (C-terminus in amide form) was used which can be purchased e.g. from the company Biosyntan (Berlin-Buch, Germany).
For the assay 50 nl of a 100 fold concentrated solution of the test compound in DMSO was pipetted into a white 1536-well microtiter plate (Greiner Bio-One, Frickenhausen, Germany), 2 μL of a solution of CSNK1A1 in aqueous assay buffer [50 mM HEPES pH 7.5, 10% (v/v) glycerol, 10 mM MgCl2, 50 mM NaCl, 1 mM dithiothreitol, 0.01% (w/v) bovine serum albumin, 0.01% (v/v) Triton X-100] were added and the mixture was incubated for 15 min at 22° C. to allow pre-binding of the test compounds to the enzyme before the start of the kinase reaction. […] The concentration of CSNK1A1 was adjusted depending of the activity of the enzyme lot and was chosen appropriate to have the assay in the linear range, a typical concentration is 0.15 ng/μL. The reaction was stopped by the addition of 2.5 μL of “ADP-Glo-reagent” (1:1.5 fold diluted with water) and the resulting mixture was incubated at 22° C. for 1 h to convert the ATP not consumed in the kinase reaction completely […]. Subsequently 2.5 μL of the “kinase detection reagent” (1.2 fold more concentrated than recommended by the producer) were added, the resulting mixture was incubated at 22° C. for 1 h and then the luminescence measured with a suitable measurement instrument (e.g. Viewlux™ from Perkin-Elmer). The amount of emitted light was taken as a measure for the amount of ADP generated and thereby for the activity of the CSNK1A1.

Each structure is given as a SMILES string.

T1 sequence (P48729 whole entry): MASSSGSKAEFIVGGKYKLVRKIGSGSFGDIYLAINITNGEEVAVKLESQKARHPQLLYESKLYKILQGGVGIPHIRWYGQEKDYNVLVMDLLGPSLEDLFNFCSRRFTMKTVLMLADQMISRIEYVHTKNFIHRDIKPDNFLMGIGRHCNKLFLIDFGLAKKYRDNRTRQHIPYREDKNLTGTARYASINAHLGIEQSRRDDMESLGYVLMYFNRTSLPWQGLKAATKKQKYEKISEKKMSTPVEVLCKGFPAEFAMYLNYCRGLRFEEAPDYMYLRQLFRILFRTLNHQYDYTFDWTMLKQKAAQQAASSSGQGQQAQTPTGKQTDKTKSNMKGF

Turning to `CN1CCc2[nH]c(-c3ccnc(NC(=O)Cc4ccccc4)c3)c(Nc3ccccc3)c2C1=O` [Example 2, N-[4-(3-anilino-5-methyl-4-oxo-4,5,6,7-tetrahydro-1H-pyrrolo[3,2-c]pyridin-2-yl)pyridin-2-yl]-2-phenylacetamide], the IC50 came out at 114 nM in experiment [1], 5.41 nM in experiment [2], 1170 nM in experiment [3] and 3.95 nM in experiment [4].
With `Cc1cc(CC(=O)Nc2cc(-c3[nH]c4c(c3Nc3ccccc3)C(=O)N(C)CC4)ccn2)ccc1F` [Example 3, N-[4-(3-anilino-5-methyl-4-oxo-4,5,6,7-tetrahydro-1H-pyrrolo[3,2-c]pyridin-2-yl)pyridin-2-yl]-2-(4-fluoro-3-methylphenyl)acetamide], the IC50 came out at 78.4 nM in experiment [1], 5.66 nM in experiment [2], 2130 nM in experiment [3] and 4.28 nM in experiment [4].
Consider `CN1CCc2[nH]c(-c3ccnc(NC(=O)Cc4ccc(F)cc4)c3)c(Nc3ccccn3)c2C1=O` [Example 12, 2-(4-fluorophenyl)-N-(4-{5-methyl-4-oxo-3-[(pyridin-2-yl)amino]-4,5,6,7-tetrahydro-1H-pyrrolo[3,2-c]pyridin-2-yl}pyridin-2-yl)acetamide], for which the IC50 in experiment [1] is 5.2 nM; in experiment [2] it was 10.2 nM; in experiment [3], more than 20000 nM; in experiment [4], 2.32 nM.
